Twelve compounds from patent publication US20260274814A1, “THIENYL COMPOUNDS FOR THE TREATMENT OF A CENTRAL NERVOUS SYSTEM DISEASE OR DISORDER” (Coreterra Therapeutics, Inc., priority 2023, published 2026) can be followed below.

The subject of the experiment is mice. The experiment can be described thus: Neuropharmacological Assay (SmartCube): automated behavioral signature of compound-treated mice compared with a database of reference drug classes. Particulars: for minimal effective dose: Mus musculus, ip; for minimal effective dose / MED / MED (minimal effective dose): i.p., that dose is shown. It counts as in vivo. The method, boiled down:
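Compounds in N-methyl-2-pyrrolidone/polyethylene glycol/propylene glycol were given i.p. 15 min before testing, at 3 doses; values shown are for 3.0 mg/kg. Video-captured behaviour was matched by algorithm against reference drug classes, giving a probability per class. MED: lowest dose reaching ≥45% total activity.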

Setting [1] is: dose having 45% or more total activity in SmartCube, if only one dose was tested, read-out: MED (minimal effective dose).
Setting [2] is: probability that activity matches this class of agents, 3.0 mg/kg i.p., 15 min before test.
Where [3] appears, read: probability that activity matches this class of agents, 3.0 mg/kg i.p., 15 min before test, hydrochloride, 3 mg/kg.
The mark [4] stands for this setting: SmartCube probability class, 3.0 mg/kg dose, i.p. 15 min before the behavioral test.
The mark [5] stands for this setting: SmartCube probability class, 3.0 mg/kg dose, i.p. 15 min before the behavioral test, hydrochloride, 3 mg/kg.
Where [6] appears, read: minimal effective dose: dose having 45% or more total activity in SmartCube, if only one dose was tested.
Setting [7] is: SmartCube class probability, 3.0 mg/kg i.p., 15 min before test.
The mark [8] stands for this setting: SmartCube class probability, 3.0 mg/kg i.p., 15 min before test, hydrochloride, 3 mg/kg.
[9] abbreviates: dose having 45% or more total activity in SmartCube, if only one dose was tested, hydrochloride.
Where [10] appears, read: minimal effective dose: dose having 45% or more total activity in SmartCube, if only one dose tested.
Setting [11] is: SmartCube class probability, 3.0 mg/kg i.p., 15 min before test, 3 mg/kg.

SMILES strings stand for the structures. Counter-ions that a name gives are not always drawn. Like-named read-outs stand apart in the source and are kept apart here.

`CCc1scc2c1CC(NC)CC2` (single isomer, unassigned) [Compound 115, 3-ethyl-N-methyl-4,5,6,7-tetrahydro-2-benzothiophen-5-amine hydrochloride]: under setting [1], the minimal effective dose stood at 3 mg/kg. Besides, under setting [2], the AD result is recorded as “ND (^ <4%)”, the AG result is “ND (^ <4%)”, the AN result is recorded as “ND (^ <4%)” and the AX result was “ND (^ <4%)”. Under setting [2], the CE result is listed as “ND (^ <4%)”, the HL entry is on record as “ND (^ <4%)”, the MS entry is on record as “ND (^ <4%)” and the PS entry is given as “ND (^ <4%)”. For the same compound, under setting [2], the SH result was “ND (^ <4%)” and the UK entry is given as “ND (^ <4%)”. Further, the AP result under setting [3] is reported as “++++ (≥74%)”.
As to `NC1CCCc2ccsc2C1` (stereo not drawn) [Compound 323, 5,6,7,8-tetrahydro-4H-cyclohepta[b]thiophen-7-amine hydrochloride], the minimal effective dose (minimal effective dose: dose having 45% or more total activity in SmartCube, if only one dose was tested, read-out: MED) amounted to 3 mg/kg. Also, under setting [4], the AD result is listed as “++ (≥24%)”, the AG result was “ND (^ <4%)”, the AN result is reported as “ND (^ <4%)” and the AP entry was “++ (≥24%)”. Besides, under setting [4], the AX entry was “+ (≥4%)”, the CE entry is given as “ND (^ <4%)”, the HL result is reported as “ND (^ <4%)” and the MS entry is given as “ND (^ <4%)”. Further, under setting [4], the PS result is reported as “ND (^ <4%)”, the SH entry is reported as “ND (^ <4%)” and the UK entry is listed as “+ (≥4%)”.
In the case of `CNC1COc2c(C3CC3)csc2C1` (single isomer, unassigned) [Compound 325, 3-cyclopropyl-N-methyl-6,7-dihydro-5H-thieno[3,2-b]pyran-6-amine hydrochloride], under setting [4], the AG entry is “ND (^ <4%)”, the AN result is listed as “ND (^ <4%)”, the AP result is on record as “ND (^ <4%)” and the AX entry is on record as “ND (^ <4%)”. Further, under setting [4], the CE entry is on record as “ND (^ <4%)”, the HL entry was “ND (^ <4%)”, the MS entry is “ND (^ <4%)” and the PS entry was “ND (^ <4%)”. The SH result under setting [4] was “ND (^ <4%)”. Also, under setting [5], the AD result was “ND (^ <4%)” and the UK result was “++ (≥24%)”. Besides, the MED under setting [6] was 3 mpk.
On to `NC1CCc2c(C(F)(F)F)csc2C1` (single isomer, unassigned) [Compound 244, 3-(trifluoromethyl)-4,5,6,7-tetrahydrobenzothiophen-6-amine hydrochloride], for which, under setting [7], the AG entry is given as “ND (^ <4%)”, the AN entry is “ND (^ <4%)”, the AP result is on record as “ND (^ <4%)” and the AX entry is recorded as “ND (^ <4%)”. Under setting [7], the CE result is on record as “ND (^ <4%)”, the HL result is listed as “ND (^ <4%)”, the MS result is reported as “ND (^ <4%)” and the PS entry is recorded as “ND (^ <4%)”. Moreover, under setting [7], the SH entry is reported as “ND (^ <4%)” and the UK entry is recorded as “ND (^ <4%)”. The AD result under setting [8] is on record as “++++ (≥74%)”. Moreover, the MED (minimal effective dose: dose having 45% or more total activity in SmartCube, if only one dose tested, hydrochloride) is on record as less than 3 mpk.
`CNC1Cc2ccsc2C1.Cl` (single isomer, unassigned) [Compound 19, N-methyl-5,6-dihydro-4H-cyclopenta[b]thiophen-5-amine hydrochloride]: the “MED (minimal effective dose)” value under setting [9] was found to be 3.0 mpk. Under setting [2], the AG entry is listed as “ND (^ <4%)”, the AN result is recorded as “ND (^ <4%)”, the AP result was “+ (≥4%)” and the HL result is on record as “ND (^ <4%)”. Under setting [2], the MS entry is given as “ND (^ <4%)”, the PS entry is given as “ND (^ <4%)” and the SH entry was “ND (^ <4%)”. Moreover, under setting [3], the AD entry is reported as “++ (≥24%)”, the AX result is “++ (≥24%)”, the CE result is listed as “ND (^ <4%)” and the UK result is “+ (≥4%)”.
For `NC1CCc2csc(Cl)c2C1` (stereo not drawn) [Compound 89, 3-chloro-4,5,6,7-tetrahydro-2-benzothiophen-5-amine hydrochloride], the minimal effective dose under setting [1] stood at 3 mg/kg. In addition, under setting [2], the AD entry is reported as “ND (^ <4%)”, the AG entry is on record as “ND (^ <4%)”, the AN result is on record as “ND (^ <4%)” and the AP result is “ND (^ <4%)”. In addition, under setting [2], the AX result was “+ (≥4%)”, the CE entry is recorded as “ND (^ <4%)”, the HL entry is given as “ND (^ <4%)” and the MS entry is given as “++ (≥24%)”. Also, under setting [2], the PS entry is recorded as “ND (^ <4%)”, the SH entry is on record as “ND (^ <4%)” and the UK entry is recorded as “ND (^ <4%)”.
Consider `CNC1CCc2scc(-c3ccccc3)c2C1` (single isomer, unassigned) [Compound 233, N-methyl-3-phenyl-4,5,6,7-tetrahydrobenzothiophen-5-amine hydrochloride], for which, under setting [7], the AD result was “ND (^ <4%)”, the AG entry was “ND (^ <4%)”, the AN entry is “ND (^ <4%)” and the AP result is recorded as “ND (^ <4%)”. Moreover, under setting [7], the AX result is given as “ND (^ <4%)”, the CE entry was “ND (^ <4%)”, the HL entry was “ND (^ <4%)” and the MS entry is “ND (^ <4%)”. Besides, under setting [7], the PS entry is “ND (^ <4%)” and the SH entry was “ND (^ <4%)”. For the same compound, under setting [8], the UK entry is on record as “ND (^ <4%)”. Moreover, the MED under setting [10] is reported as greater than 3 mpk.
Turning to `CNC1(C)COc2c(C)csc2C1.Cl` (stereo not drawn) [Compound 239, N, 3,6-trimethyl-6,7-dihydro-5H-thieno[3,2-b]pyran-6-amine hydroachloride], under setting [7], the AG entry was “ND (^ <4%)”, the AN result was “ND (^ <4%)”, the AP result was “ND (^ <4%)” and the AX entry is on record as “ND (^ <4%)”. In addition, under setting [7], the CE entry is “ND (^ <4%)”, the HL entry is recorded as “ND (^ <4%)”, the MS result is on record as “ND (^ <4%)” and the PS result is “ND (^ <4%)”. Also, the SH entry under setting [7] was “ND (^ <4%)”. Further, under setting [11], the AD result is “ND (^ <4%)” and the UK result was “++ (≥24%)”. Besides, the MED under setting [10] is recorded as greater than 3 mpk.
Turning to `CNC1CCc2c(csc2C(F)(F)F)C1` (single isomer, unassigned) [Compound 63, N-methyl-1-(trifluoromethyl)-4,5,6,7-tetrahydro-2-benzothiophen-5-amine hydrochloride], the “MED (minimal effective dose)” value under setting [9] is given as 1.0 mpk. Under setting [2], the AD result is “+ (≥4%)”, the AG entry is recorded as “ND (^ <4%)”, the AN entry is “ND (^ <4%)” and the AP entry is “ND (^ <4%)”. Further, under setting [2], the CE result was “ND (^ <4%)”, the HL result is “ND (^ <4%)”, the PS result was “ND (^ <4%)” and the SH result is listed as “ND (^ <4%)”. Further, under setting [3], the AX entry was “+++ (≥49%)”, the MS result was “+ (≥4%)” and the UK result is “ND (^ <4%)”.
As for `CCC1(NC)CCc2sccc2C1` (single isomer, unassigned) [Compound 292, 5-ethyl-N-methyl-6,7-dihydro-4H-benzothiophen-5-amine hydrochloride], under setting [4], the AD entry is on record as “ND (^ <4%)”, the AG result is given as “ND (^ <4%)”, the AN result was “ND (^ <4%)” and the AP result was “ND (^ <4%)”. Further, under setting [4], the AX entry is “ND (^ <4%)”, the CE entry is recorded as “ND (^ <4%)”, the HL result is recorded as “ND (^ <4%)” and the MS result is “ND (^ <4%)”. Also, under setting [4], the PS result is given as “ND (^ <4%)” and the SH entry was “ND (^ <4%)”. In addition, under setting [5], the UK entry is given as “++ (≥24%)”. This compound also displayed an MED under setting [6] greater than 3 mpk.
Take `CNC1CCc2scc(C3CCC3)c2C1` (stereo not drawn) [Compound 206, 3-cyclobutyl-N-methyl-4,5,6,7-tetrahydrobenzothiophen-5-amine hydrochloride]: under “minimal effective dose: dose having 45% or more total activity in SmartCube, if only one dose tested, read-out: MED”, the minimal effective dose was determined as 3 mg/kg. Under setting [7], the AD entry is “ND (^ <4%)”, the AG entry was “ND (^ <4%)”, the AN entry was “ND (^ <4%)” and the AP entry is given as “ND (^ <4%)”. In addition, under setting [7], the AX result is “ND (^ <4%)”, the CE entry is “ND (^ <4%)”, the HL entry is “ND (^ <4%)” and the MS entry is reported as “ND (^ <4%)”. Moreover, under setting [7], the PS result is “ND (^ <4%)”, the SH entry is on record as “ND (^ <4%)” and the UK result is recorded as “++ (≥24%)”.
On to `CNC1CCc2sc(Cl)cc2C1` (single isomer, unassigned) [Compound 152, 2-chloro-N-methyl-4,5,6,7-tetrahydrobenzothiophen-5-amine hydrochloride], for which, under setting [7], the AD result is given as “ND (^ <4%)”, the AG entry was “ND (^ <4%)”, the AN result was “ND (^ <4%)” and the AP entry is listed as “ND (^ <4%)”. Under setting [7], the AX result is given as “ND (^ <4%)”, the CE entry is “ND (^ <4%)”, the HL entry is given as “ND (^ <4%)” and the MS entry is “ND (^ <4%)”. Under setting [7], the PS entry was “ND (^ <4%)” and the SH entry is “ND (^ <4%)”. Under setting [8], the UK entry is listed as “++ (≥24%)”. Under setting [10], this compound came in with an MED of 3 mpk.
